Measured values published in patent US10538512B2, “Aminoacylindazole immunomodulators for treatment of autoimmune diseases” (The Rockefeller University, priority 2016, dated 2020).

Experiments:
[1] = target: T1, Human FXIIa (Homo sapiens, UniProt P00748); experiment: Factor XIIa (FXIIa) inhibitory activity, chromogenic substrate assay; format: biochemical; conditions: Human FXIIa 12.5 nM, Pefachrome XIIa 400 μM, 10 min preincubation
T1 construct: active coagulation factor XII (FXIIa); purchased Enzyme Research Labs
T1 sequence (P00748 373-615 limits assumed): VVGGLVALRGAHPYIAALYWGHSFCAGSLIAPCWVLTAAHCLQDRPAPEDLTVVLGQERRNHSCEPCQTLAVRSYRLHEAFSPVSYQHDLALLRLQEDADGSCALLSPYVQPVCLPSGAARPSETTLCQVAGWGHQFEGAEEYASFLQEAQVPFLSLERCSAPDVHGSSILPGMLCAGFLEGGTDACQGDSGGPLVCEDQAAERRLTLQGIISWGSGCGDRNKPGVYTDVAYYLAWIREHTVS
T1 sequence (P00748 20-372 partner limits assumed): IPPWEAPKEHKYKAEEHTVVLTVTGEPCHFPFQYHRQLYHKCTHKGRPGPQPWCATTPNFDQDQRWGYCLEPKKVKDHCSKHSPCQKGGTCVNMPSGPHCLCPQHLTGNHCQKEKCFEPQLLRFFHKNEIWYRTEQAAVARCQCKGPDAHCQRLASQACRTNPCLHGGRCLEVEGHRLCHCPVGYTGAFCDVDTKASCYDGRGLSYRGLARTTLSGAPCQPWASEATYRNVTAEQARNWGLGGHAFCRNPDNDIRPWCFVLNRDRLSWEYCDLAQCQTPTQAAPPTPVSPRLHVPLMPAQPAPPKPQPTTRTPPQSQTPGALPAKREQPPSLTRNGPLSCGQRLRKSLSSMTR
How it was run: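 Buffer was 0.5× HBSS with 25 mM HEPES pH 7.4 and 0.5× TBS-Tween 0.05%. Enzyme and compound (about 1–100 μM) were preincubated 10 min at room temperature, then Pefachrome XIIa was added at 400 μM final. Substrate cleavage was followed as the rate of A405 change at 37 °C.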

[2] = target: T2, Human alpha-thrombin (Homo sapiens, UniProt P00734); experiment: Thrombin counterscreen for selectivity, fluorogenic substrate assay; format: biochemical; conditions: Human alpha-thrombin 12.5 nM, Boc-Val-Pro-Arg-AMC 20 μM, 10 min preincubation
T2 construct: Human alpha-thrombin (Enzyme Research Labs); purchased Enzyme Research Labs
Protocol: Counterscreens for Selectivity:
In a 96-well white opaque plate, 80 μl of assay buffer was added to each well. Test compounds were added, and serially diluted as above, to generate a concentration range of approximately 1-100 μM. […] 80 μl of this enzyme solution was added to the assay wells. The enzyme/compound mixtures were incubated for 10 minutes at room temperature. Fluorogenic substrate (Boc-Val-Pro-Arg-7-amido-4-methylcoumarin; Sigma) was added to assay wells at a final concentration of 20 μM. The assay plate was spun for 1 minute at 1500 g and then read at 37° C. in a SpectraMax M2 plate reader (λex=380 nm and λem=460 nm). Activity was quantified as the rate of change in fluorescence, which corresponds to the rate of substrate cleavage.

Row | SMILES | IC50 [1] | IC50 [2]
1 | Cc1cc2c(C(=O)n3nc4c(c3N)CCCC4)cccc2o1 (single isomer, unassigned) [Example 58, (3-amino-4,5,6,7-tetrahydroindazol-2-yl)(2-methylbenzofuran-4-yl)methanone] | 0.06 µM | 40 µM
2 | Cc1cc2c(C(=O)n3nc(N)c4c3CCCC4)cccc2o1 (single isomer, unassigned) [Example 59, (3-amino-4,5,6,7-tetrahydroindazol-1-yl)(2-methylbenzofuran-4-yl)methanone] | > 100 µM | > 100 µM
3 | Nc1c2c(nn1C(=O)c1cccc3[nH]c(Br)cc13)CCCC2 (single isomer, unassigned) [Example 62, (3-amino-4,5,6,7-tetrahydroindazol-2-yl)(2-bromo-1H-indol-4-yl)methanone] | 0.01 µM | 20 µM
4 | Nc1nn(C(=O)c2cccc3[nH]c(Br)cc23)c2c1CCCC2 (single isomer, unassigned) [Example 63, (3-amino-4,5,6,7-tetrahydroindazol-1-yl)(2-bromo-1H-indol-4-yl)methanone] | 65 µM | > 100 µM
5 | Nc1nn(C(=O)c2cccc3c2CC(=O)N3)c2c1CCCC2 (single isomer, unassigned) [Example 65, 4-(3-amino-4,5,6,7-tetrahydro-1H-indazole-1-carbonyl)indolin-2-one] | > 100 µM | > 100 µM
6 | CCc1cc2c(C(=O)n3nc(N)c4c3CCCC4)cccc2n1C (single isomer, unassigned) [Example 67, (3-amino-4,5,6,7-tetrahydroindazol-1-yl)(2-ethyl-1-methyl-1H-indol-4-yl)methanone] | > 50 µM | > 50 µM
7 | CCc1cc2c(C(=O)n3nc4c(c3N)CCCC4)cccc2n1CC (single isomer, unassigned) [Example 68, (3-amino-4,5,6,7-tetrahydroindazol-2-yl)(1,2-diethyl-1H-indol-4-yl)methanone] | 0.01 µM | 40 µM
8 | CCc1cc2c(C(=O)n3nc(N)c4c3CCCC4)cccc2n1CC (single isomer, unassigned) [Example 69, (3-amino-4,5,6,7-tetrahydroindazol-1-yl)(1,2-diethyl-1H-indol-4-yl)methanone] | 35 µM | > 100 µM
9 | C=Cc1cc2c(C(=O)n3nc4c(c3N)CCCC4)cccc2[nH]1 (single isomer, unassigned) [Example 70, (3-amino-4,5,6,7-tetrahydroindazol-2-yl)(2-vinyl-1H-indol-4-yl)methanone] | 0.02 µM | 13 µM
10 | CN1CCC(C(=O)n2nc3c(c2N)CCCC3)c2ccccc21 (single isomer, unassigned) [Example 73, (R*)-(3-amino-4,5,6,7-tetrahydroindazol-2-yl)(1-methyl-1,2,3,4-tetrahydroquinolin-4-yl)methanone] | > 50 µM | > 50 µM
11 | CCN1CCC(C(=O)n2nc3c(c2N)CCCC3)c2ccccc21 (single isomer, unassigned) [Example 74, (3-amino-4,5,6,7-tetrahydroindazol-2-yl)(1-ethyl-1,2,3,4-tetrahydroquinolin-4-yl)methanone] | 0.5 µM | > 100 µM
12 | CCN1CCC(C(=O)n2nc(N)c3c2CCCC3)c2ccccc21 (single isomer, unassigned) [Example 75, (3-amino-4,5,6,7-tetrahydroindazol-1-yl)(1-ethyl-1,2,3,4-tetrahydroquinolin-4-yl)methanone] | > 100 µM | > 100 µM
13 | Nc1c2c(nn1C(=O)[C@H]1CCCc3[nH]c(Cl)cc31)CC[C@@H](O)C2 (single isomer, unassigned) [Example 125] | 1.4 µM | > 100 µM
14 | Nc1c2c(nn1C(=O)[C@H]1CCCc3[nH]c(Cl)cc31)CC[C@@H](O)C2 (single isomer, unassigned) [Example 126, ((5R*)-3-amino-5-hydroxy-4,5,6,7-tetrahydroindazol-2-yl)((4S*)-2-chloro-4,5,6,7-tetrahydro-1H-indol-4-yl)methanone] | 0.02 µM | 37 µM
15 | Nc1c2c(nn1C(=O)[C@H]1CCCc3[nH]c(Cl)cc31)CC[C@H](O)C2 (single isomer, unassigned) [Example 127, ((5S*)-3-amino-5-hydroxy-4,5,6,7-tetrahydroindazol-2-yl)((4S*)-2-chloro-4,5,6,7-tetrahydro-1H-indol-4-yl)methanone] | 0.35 µM | > 80 µM
16 | Nc1c2c(nn1C(=O)[C@@H]1CCCc3[nH]c(Cl)cc31)CC[C@H](O)C2 (single isomer, unassigned) [Example 128, ((5S*)-3-amino-5-hydroxy-4,5,6,7-tetrahydroindazol-2-yl)((4R*)-2-chloro-4,5,6,7-tetrahydro-1H-indol-4-yl)methanone] | 30 µM | > 65 µM
17 | Nc1c2c(nn1C(=O)[C@H]1CCNc3ccc(F)cc31)CC[C@@H](F)C2 (single isomer, unassigned) [Example 137, ((5R*)-3-amino-5-fluoro-4,5,6,7-tetrahydroindazol-2-yl)((4S*)-6-fluoro-1,2,3,4-tetrahydroquinolin-4-yl)methanone] | 0.06 µM | 29 µM

More lines, now with the values ahead:

Row | IC50 [1] | IC50 [2] | SMILES
18 | 0.3 µM | > 100 µM | Nc1c2c(nn1C(=O)C1CCNc3ccccc31)CCCC2 (single isomer, unassigned) [Example 76, (3-amino-4,5,6,7-tetrahydroindazol-2-yl)(1,2,3,4-tetrahydroquinolin-4-yl)methanone]
19 | 0.05 µM | > 150 µM | Nc1c2c(nn1C(=O)[C@H]1CCNc3ccc(F)cc31)CC[C@@H](O)C2 (single isomer, unassigned) [Example 129, ((5R*)-3-amino-5-hydroxy-4,5,6,7-tetrahydro-2H-indazol-2-yl)(4(S*)-6-fluoro-1,2,3,4-tetrahydroquinolin-4-yl)methanone]
20 | 0.2 µM | > 60 µM | Nc1c2c(nn1C(=O)[C@H]1CCNc3ccc(F)cc31)CC[C@H](F)C2 (single isomer, unassigned) [Example 140, ((5S*)-3-amino-5-fluoro-4,5,6,7-tetrahydroindazol-2-yl)((4S*)-6-fluoro-1,2,3,4-tetrahydroquinolin-4-yl)methanone]
21 | 1.3 µM | > 80 µM | Nc1c2c(nn1C(=O)[C@H]1CCNc3ccc(Cl)cc31)CC[C@H](O)C2 (single isomer, unassigned) [Example 143, ((5S*)-3-amino-5-hydroxy-4,5,6,7-tetrahydroindazol-2-yl)((4S*)-6-chloro-1,2,3,4-tetrahydroquinolin-4-yl)methanone]
22 | 0.04 µM | > 80 µM | Nc1c2c(nn1C(=O)[C@H]1CCNc3ccc(Cl)cc31)CC[C@@H](O)C2 (single isomer, unassigned) [Example 148, ((5R*)-3-amino-5-hydroxy-4,5,6,7-tetrahydroindazol-2-yl)((4S*)-6-chloro-1,2,3,4-tetrahydroquinolin-4-yl)methanone]
23 | 0.35 µM | > 80 µM | Nc1c2c(nn1C(=O)[C@H]1CCNc3ccccc31)CC[C@@H](O)C2 (single isomer, unassigned) [Example 165, ((5R*)-3-amino-5-hydroxy-4,5,6,7-tetrahydroindazol-2-yl)((4S*)-1,2,3,4-tetrahydroquinolin-4-yl)methanone]
24 | > 80 µM | > 80 µM | Nc1nn(C(=O)[C@H]2CCNc3ccccc32)c2c1C[C@H](O)CC2 (single isomer, unassigned) [Example 167, ((5R*)-3-amino-5-hydroxy-4,5,6,7-tetrahydroindazol-1-yl)((4S*)-1,2,3,4-tetrahydroquinolin-4-yl)methanone]
25 | > 100 µM | > 100 µM | Nc1nn(C(=O)[C@@H]2CCNc3ccccc32)c2c1C[C@H](O)CC2 (single isomer, unassigned) [Example 168, ((5R*)-3-amino-5-hydroxy-4,5,6,7-tetrahydroindazol-1-yl)((4R*)-1,2,3,4-tetrahydroquinolin-4-yl)methanone]
26 | 60 µM | > 100 µM | Nc1c2c(nn1C(=O)[C@@H]1CCNc3ccccc31)CC[C@H](O)C2 (single isomer, unassigned) [Example 169, ((5S*)-3-amino-5-hydroxy-4,5,6,7-tetrahydroindazol-2-yl)((4R*)-1,2,3,4-tetrahydroquinolin-4-yl)methanone]
